Measurements from ChEMBL document CHEMBL4622958, “Tetrazoles as anticancer agents: A review on synthetic strategies, mechanism of action and SAR studies” (Bioorg Med Chem, 2020).
In brackets after ≈: the same amount, converted by molar mass. Structures can show the parent of a compound that is named as a salt. Each block holds one compound with its values, some of them ahead of it.

Key:
U2OS [1] = assay: Cytotoxicity against human U2OS cells assessed as reduction in cell viability by CellTiter 96 non-radioactive cell proliferation assay; assay type: functional, cell-based
U2OS [2] = assay: Cytotoxicity against human U2OS cells assessed as reduction in cell viability at 20 uM by CellTiter 96 non-radioactive cell proliferation assay relative to control; assay type: functional
HUVEC = assay: Cytotoxicity against HUVEC assessed as reduction in cell viability; assay type: cell-based; conditions: Homo sapiens
CCRF-CEM [3] = assay: Cytotoxicity against human CCRF-CEM cells assessed as reduction in cell viability at 25 uM after 48 hrs by MTT assay relative to control; assay type: functional; conditions: values are per cent of control
CCRF-CEM [4] = assay: Cytotoxicity against human CCRF-CEM cells assessed as reduction in cell viability at 25 uM after 24 hrs by MTT assay relative to control; assay type: functional; conditions: values are per cent of control
CCRF-CEM [5] = assay: Cytotoxicity against human CCRF-CEM cells assessed as reduction in cell viability at 50 uM after 48 hrs by MTT assay relative to control; assay type: functional; conditions: values are per cent of control
CCRF-CEM [6] = assay: Cytotoxicity against human CCRF-CEM cells assessed as reduction in cell viability at 10 uM after 24 hrs by MTT assay relative to control; assay type: functional; conditions: values are per cent of control
CCRF-CEM [7] = assay: Cytotoxicity against human CCRF-CEM cells assessed as reduction in cell viability at 10 uM after 48 hrs by MTT assay relative to control; assay type: functional; conditions: values are per cent of control
CCRF-CEM [8] = assay: Cytotoxicity against human CCRF-CEM cells assessed as reduction in cell viability at 50 uM after 24 hrs by MTT assay relative to control; assay type: functional; conditions: values are per cent of control
MCF7 [9] = assay: Cytotoxicity against human MCF7 cells assessed as reduction in cell viability after 48 hrs by MTT assay; assay type: functional, cell-based; conditions: MCF7, 48 h
HOP-62 = assay: Growth inhibition of human HOP62 cells after 48 hrs by MTT assay; assay type: functional; conditions: HOP-62, 48 h
HeLa = assay: Cytotoxicity against human HeLa cells assessed as reduction in cell viability after 48 hrs by MTT assay; assay type: functional, cell-based
MCF7 [10] = assay: Anticancer activity against human MCF7 cells after 48 hrs by MTT assay; assay type: functional, cell-based; conditions: MCF7, 48 h
HT-29 = assay: Anticancer activity against human HT-29 cells after 48 hrs by MTT assay; assay type: functional, cell-based; conditions: HT-29, 48 h
A549 = assay: Anticancer activity against human A549 cells after 48 hrs by MTT assay; assay type: functional, cell-based; conditions: A549, 48 h
[11] = Half life in human liver microsome; assay type: ADME; conditions: liver microsomes
HepG2 [12] = assay: Anticancer activity against human HepG2 cells after 48 hrs by MTT assay; assay type: functional, cell-based; conditions: HepG2, 48 h
MCF7 [13] = assay: Growth inhibition of human MCF7 cells after 48 hrs by MTT assay; assay type: functional; conditions: MCF7, 48 h
HepG2 [14] = assay: Anticancer activity against human HepG2 cells after 48 hrs by SRB assay; conditions: HepG2, 48 h

SMILES: CC(C)(C)n1nnc([C@H](CCCNC(=N)CCl)NC(=O)c2ccc(-c3ccccc3)cc2)n1
EC50 (U2OS [1]): 10 µM | Activity (U2OS [2]): 0%

SMILES: CCC(C)n1ncn(-c2ccc(N3CCN(c4ccc(OC[C@@H]5CO[C@@](Cn6nnnc6-c6ccccc6)(c6ccc(Cl)cc6Cl)O5)cc4)CC3)cc2)c1=O (some centres undefined)
IC50 (HUVEC): 0.119 µM

SMILES: CCC(C)n1ncn(-c2ccc(N3CCN(c4ccc(OC[C@@H]5CO[C@@](Cn6ncnn6)(c6ccc(Cl)cc6Cl)O5)cc4)CC3)cc2)c1=O (some centres undefined)
IC50 (HUVEC): 0.124 µM

SMILES: CCC(C)n1ncn(-c2ccc(N3CCN(c4ccc(OC[C@@H]5CO[C@@](Cn6nnnc6C)(c6ccc(Cl)cc6Cl)O5)cc4)CC3)cc2)c1=O (some centres undefined)
IC50 (HUVEC): 0.101 µM

SMILES: Clc1ccccc1-c1nnnn1CCCn1cnc2c(Br)c(Br)c(Br)c(Br)c21
viability, % of control at 25 µM (CCRF-CEM [3]): 1% | viability, % of control at 25 µM (CCRF-CEM [4]): 1% | viability, % of control at 50 µM (CCRF-CEM [5]): 0% | viability, % of control at 10 µM (CCRF-CEM [6]): 65% | viability, % of control at 10 µM (CCRF-CEM [7]): 51% | viability, % of control at 50 µM (CCRF-CEM [8]): 2%

SMILES: CC(C)(C)n1nnc([C@H](CCCNC(=N)CBr)NC(=O)c2ccc(-c3ccccc3)cc2)n1
EC50 (U2OS [1]): 45 µM | Activity (U2OS [2]): 50%

SMILES: Brc1c(Br)c(Br)c2c(ncn2CCCn2nnnc2-c2ccccc2)c1Br
viability, % of control at 25 µM (CCRF-CEM [3]): 0% | viability, % of control at 25 µM (CCRF-CEM [4]): 4% | viability, % of control at 50 µM (CCRF-CEM [5]): 0% | viability, % of control at 10 µM (CCRF-CEM [6]): 67% | viability, % of control at 10 µM (CCRF-CEM [7]): 57% | viability, % of control at 50 µM (CCRF-CEM [8]): 2%

SMILES: CCOC(=O)Cn1nnnc1/C(=C/c1ccc(F)cc1)NC(=O)c1ccccc1
IC50 (MCF7 [9]): 47.9 µM

SMILES: O=[N+]([O-])c1ccc(-c2nnnn2-c2ccc(-c3nc4ccccc4o3)cc2)cc1
GI50 (HOP-62): 1.22 µM

SMILES: O=[N+]([O-])c1cccc(-c2nnnn2-c2ccc(-c3nc4ccccc4o3)cc2)c1
GI50 (HOP-62): 2.9 µM

SMILES: Clc1ccccc1-c1nnn(CCCn2cnc3c(Br)c(Br)c(Br)c(Br)c32)n1
viability, % of control at 25 µM (CCRF-CEM [3]): 89% | viability, % of control at 25 µM (CCRF-CEM [4]): 96% | viability, % of control at 50 µM (CCRF-CEM [5]): 42% | viability, % of control at 10 µM (CCRF-CEM [6]): 102% | viability, % of control at 10 µM (CCRF-CEM [7]): 104% | viability, % of control at 50 µM (CCRF-CEM [8]): 68%

SMILES: CCOC(=O)Cn1nnnc1/C(=C/c1ccc(OC)cc1)NC(=O)c1ccccc1
IC50 (MCF7 [9]): 44.6 µM

SMILES: Fc1ccc(/C=C/c2nc3ccc(Br)cc3c3nnnn23)cc1
IC50 (MCF7 [9]): 21 µM | IC50 (HeLa): 22.4 µM

SMILES: Fc1ccc(-c2ccc3nc(/C=C/c4ccccc4)n4nnnc4c3c2)cc1
IC50 (MCF7 [9]): > 200 µM | IC50 (HeLa): > 200 µM

SMILES: Brc1ccc2nc(/C=C/c3ccccc3)n3nnnc3c2c1
IC50 (MCF7 [9]): 9.6 µM | IC50 (HeLa): 7.3 µM

SMILES: COc1cc(-c2nnnn2-c2ccc(-c3nc4ccccc4o3)cc2)cc(OC)c1OC
GI50 (HOP-62): 1.67 µM

IC50 (MCF7 [10]): 9.88 µM | IC50 (HT-29): 5.97 µM | IC50 (A549): 10.6 µM | half-life [11]: 9.17 h | IC50 (HepG2 [12]): 5.72 µM
SMILES: O=C(NC(=O)Nc1ccc(F)cc1F)Nc1ccc(Oc2ccnc(-n3cnnn3)c2)c(F)c1

IC50 (MCF7 [10]): 7.76 µM | IC50 (HT-29): 20.6 µM | IC50 (A549): 6.25 µM | half-life [11]: 2.28 h | IC50 (HepG2 [12]): 0.55 µM
SMILES: O=C(NC(=O)Nc1ccc(Oc2ccnc(-n3cnnn3)c2)c(F)c1)Nc1cccc(F)c1

SMILES: Brc1c(Br)c(Br)c2c(ncn2CCCn2nnc(-c3ccccc3)n2)c1Br
viability, % of control at 25 µM (CCRF-CEM [3]): 64% | viability, % of control at 25 µM (CCRF-CEM [4]): 73% | viability, % of control at 50 µM (CCRF-CEM [5]): 0% | viability, % of control at 10 µM (CCRF-CEM [6]): 106% | viability, % of control at 10 µM (CCRF-CEM [7]): 105% | viability, % of control at 50 µM (CCRF-CEM [8]): 4%

SMILES: CCOC(=O)Cn1nnnc1/C(=C/c1ccc(Cl)cc1)NC(=O)c1ccccc1
IC50 (MCF7 [9]): 40.2 µM

SMILES: Fc1ccc(C#Cc2ccc3nc(/C=C/c4ccccc4)n4nnnc4c3c2)cc1
IC50 (MCF7 [9]): > 200 µM | IC50 (HeLa): > 200 µM

SMILES: N[C@@H](Cc1ccc(N(CCCl)CCCl)cc1)C(=O)O
IC50 (MCF7 [9]): 61 µM | IC50 (HeLa): 88.9 µM

GI50 (MCF7 [13]): 170 µM
SMILES: COc1cccc2c1C(=O)c1c(O)c3c(c(O)c1C2=O)C[C@@](O)(C(=O)CO)C[C@@H]3O[C@H]1C[C@H](N)[C@H](O)[C@H](C)O1 [DOXORUBICIN HYDROCHLORIDE]
GI50 (HOP-62): 0.14 µM

IC50 (HepG2 [14]): 4000 µg/mL (≈ 7.36 mM)
SMILES: COc1cccc2c1C(=O)c1c(O)c3c(c(O)c1C2=O)C[C@@](O)(C(=O)CO)C[C@@H]3O[C@H]1C[C@H](N)[C@H](O)[C@H](C)O1 [DOXORUBICIN]

IC50 (MCF7 [10]): 10.9 µM | IC50 (HT-29): 10.1 µM | IC50 (A549): 11.2 µM | IC50 (HepG2 [12]): 9.64 µM
SMILES: CNC(=O)c1cc(Oc2ccc(NC(=O)Nc3ccc(Cl)c(C(F)(F)F)c3)cc2)ccn1 [SORAFENIB]
